Measured values as given in patent US20150291598A1 (NOVARTIS AG, priority 2012, published 2015).

These compounds were tested on P. falciparum (NF54 or 3D7 strain) (assay: Assay for P. falciparum proliferation in infected human blood cells (SYBR Green)). Settings: Plasmodium falciparum, Erythrocyte, 72 h, NF54 or 3D7 infected human erythrocytes, 72 hours; read-out: EC50 (nM), inhibitory efficacy in delaying P. falciparum proliferation in infected human blood cells.
Format: cell-based, Plasmodium falciparum
Outline: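 Infected erythrocytes (NF54 or 3D7; final 2.5% hematocrit, 0.3% parasitemia) were incubated with compounds for 72 h at 37 °C in low oxygen (3% O2, 4% CO2, 93% N2).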

Compound | EC50 [nM]
NC(=O)c1ccc(-c2cn3c(-c4ccc(C(N)=O)cc4)cnc3cn2)cc1 [Compound 210, 4-[3-(4-carbamoylphenyl)imidazo[1,2-a]pyrazin-6-yl]benzamide] | 1980
CN(C(=O)c1cn2c(-c3cnc(N4CCCC4=O)cn3)cnc2cn1)c1ccc(C#N)cc1 [Compound 211, N-(4-cyanophenyl)-N-methyl-3-[5-(2-oxopyrrolidin-1-yl)pyrazin-2-yl]imidazo[1,2-a]pyrazine-6-carboxamide] | 9390
CN(C(=O)c1cn2c(-c3ccc(NC(=O)[C@@H](N)C4CCCCC4)cc3)cnc2cn1)c1ccc(C#N)cc1 [Compound 212, 3-{4-[(2S)-2-amino-2-cyclohexylacetamido]phenyl}-N-(4-cyanophenyl)-N-methylimidazo[1,2-a]pyrazine-6-carboxamide] | 137
CN(C(=O)c1cn2c(-c3ccc(N4CCCCC4)cc3)cnc2cn1)c1ccc(Cl)nc1 [Compound 216, N-(6-chloropyridin-3-yl)-N-methyl-3-[4-(piperidin-1-yl)phenyl]imidazo[1,2-a]pyrazine-6-carboxamide] | 5710
O=C(c1cn2c(-c3ccc(C(F)(F)F)cc3)cnc2cn1)N1CCCc2cc(Cl)ccc21 [Compound 218, 6-chloro-1-({3-[4-(trifluoromethyl)phenyl]imidazo[1,2-a]pyrazin-6-yl}carbonyl)-1,2,3,4-tetrahydroquinoline] | 680
Cc1cnc(Cl)c(N(C)C(=O)c2cn3c(-c4ccc(C(F)(F)F)cc4)cnc3cn2)c1 [Compound 220, N-(2-chloro-5-methylpyridin-3-yl)-N-methyl-3-[4-(trifluoromethyl)phenyl]imidazo[1,2-a]pyrazine-6-carboxamide] | 4040
COC(=O)Nc1ccc(-c2cnc3cnc(CN(C)c4ccc(C#N)cc4)cn23)cc1 [Compound 225, methyl N-[4-(6-{[(4-cyanophenyl)(methyl)amino]methyl}imidazo[1,2-a]pyrazin-3-yl)phenyl]carbamat] | 37
CC(=O)Nc1ccc(-c2cnc3cnc(CN(C)c4ccc(C#N)cc4)cn23)cn1 [Compound 226, N-[5-(6-{[(4-cyanophenyl)(methyl)amino]methyl}imidazo[1,2-a]pyrazin-3-yl)pyridin-2-yl]acetamide] | 37
CC1(C)CCc2cc(F)ccc2N1C(=O)c1cn2c(-c3ccc(C(N)=O)cc3)cnc2cn1 [Compound 229, 4-{6-[(6-fluoro-2,2-dimethyl-1,2,3,4-tetrahydroquinolin-1-yl)carbonyl]imidazo[1,2-a]pyrazin-3-yl}benzamide] | 19
CC1(C)CCc2cc(F)ccc2N1C(=O)c1cn2c(-c3ccc(C(F)(F)F)cc3)cnc2cn1 [Compound 230, 6-fluoro-2,2-dimethyl-1-({3-[4-(trifluoromethyl)phenyl]imidazo[1,2-a]pyrazin-6-yl}carbonyl)-1,2,3,4-tetrahydroquinoline] | 21
CN(Cc1cn2c(-c3ccc(C(F)(F)F)cc3)cnc2cn1)c1ccc(Cl)nc1 [Compound 231, 6-chloro-N-methyl-N-({3-[4-(trifluoromethyl)phenyl]imidazo[1,2-a]pyrazin-6-yl}methyl)pyridin-3-amine] | 74
Cc1ccc(N(C)Cc2cn3c(-c4ccc(C(N)=O)cc4)cnc3cn2)nc1 [Compound 233, 4-(6-{[methyl(5-methylpyridin-2-yl)amino]methyl}imidazo[1,2-a]pyrazin-3-yl)benzamide] | 138
Fc1ccc2c(c1)CCCN2Cc1cn2c(-c3ccc(C(F)(F)F)cc3)cnc2cn1 [Compound 234, 6-fluoro-1-({3-[4-(trifluoromethyl)phenyl]imidazo[1,2-a]pyrazin-6-yl}methyl)-1,2,3,4-tetrahydroquinoline] | 148
COCCN(C(=O)c1cn2c(-c3ccc(C(F)(F)F)cc3)cnc2cn1)c1ccc(C#N)cc1 [Compound 238, N-(4-cyanophenyl)-N-(2-methoxyethyl)-3-[4-(trifluoromethyl)phenyl]imidazo[1,2-a]pyrazine-6-carboxamide] | 152
Cc1ccc(N(C)Cc2cn3c(-c4ccc(C(F)F)cc4)cnc3cn2)nc1 [Compound 241, N-({3-[4-(difluoromethyl)phenyl]imidazo[1,2-a]pyrazin-6-yl}methyl)-N,5-dimethylpyridin-2-amine] | 262
CC(=O)Nc1ccc(-c2cnc3cnc(CN(C)c4ccc(C)cn4)cn23)cn1 [Compound 242, N-[5-(6-{[methyl(5-methylpyridin-2-yl)amino]methyl}imidazo[1,2-a]pyrazin-3-yl)pyridin-2-yl]acetamide] | 215

Now from value to compound:

EC50 [nM] | Compound
2700 | CN(C(=O)c1cn2c(-c3ccc(OC(F)F)cc3)cnc2cn1)c1ccc(S(C)(=O)=O)cc1 [Compound 209, 3-[4-(difluoromethoxy)phenyl]-N-(4-methanesulfonylphenyl)-N-methylimidazo[1,2-a]pyrazine-6-carboxamide]
31 | CN(C(=O)c1cn2c(-c3ccc(OC(F)F)cc3)cnc2cn1)c1ccc(C#N)cc1 [Compound 214, N-(4-cyanophenyl)-3-[4-(difluoromethoxy)phenyl]-N-methylimidazo[1,2-a]pyrazine-6-carboxamide]
86 | CN(C(=O)c1cn2c(-c3ccc(C(F)(F)F)cc3)cnc2cn1)c1ccc(Br)cc1 [Compound 215, N-(4-bromophenyl)-N-methyl-3-[4-(trifluoromethyl)phenyl]imidazo[1,2-a]pyrazine-6-carboxamide]
36 | CN(C(=O)c1cn2c(-c3ccc(C(F)(F)F)cc3)cnc2cn1)c1ccc(Cl)cc1 [Compound 217, N-(4-chlorophenyl)-N-methyl-3-[4-(trifluoromethyl)phenyl]imidazo[1,2-a]pyrazine-6-carboxamide]
63 | COc1ccc(-c2cnc3cnc(C(=O)N(C)c4ccc(Cl)cc4)cn23)cc1 [Compound 219, N-(4-chlorophenyl)-3-(4-methoxyphenyl)-N-methylimidazo[1,2-a]pyrazine-6-carboxamide]
4970 | CN(C(=O)c1cn2c(-c3ccc(C(F)(F)F)cc3)cnc2cn1)c1ncccc1F [Compound 221, N-(3-fluoropyridin-2-yl)-N-methyl-3-[4-(trifluoromethyl)phenyl]imidazo[1,2-a]pyrazine-6-carboxamide]
149 | CN(C(=O)c1cn2c(-c3ccc(-c4ccn[nH]4)cc3)cnc2cn1)c1ccc(Cl)nc1 [Compound 224, N-(6-chloropyridin-3-yl)-N-methyl-3-[4-(1H-pyrazol-5-yl)phenyl]imidazo[1,2-a]pyrazine-6-carboxamide]
40 | CN(C(=O)c1cn2c(-c3ccc(-c4nnc(N)o4)cc3)cnc2cn1)c1ccc(F)cc1 [Compound 227, 3-[4-(5-amino-1,3,4-oxadiazol-2-yl)phenyl]-N-(4-fluorophenyl)-N-methylimidazo[1,2-a]pyrazine-6-carboxamide]
3990 | CN(C(=O)c1cn2c(-c3ccc(C#N)cc3)cnc2cn1)c1ccc(S(C)(=O)=O)cc1 [Compound 232, 3-(4-cyanophenyl)-N-(4-methanesulfonylphenyl)-N-methylimidazo[1,2-a]pyrazine-6-carboxamide]
100 | CN(C(=O)c1cn2c(-c3ccc(C(C)(F)F)cc3)cnc2cn1)c1ccc(Cl)nc1 [Compound 237, N-(6-chloropyridin-3-yl)-3-[4-(1,1-difluoroethyl)phenyl]-N-methylimidazo[1,2-a]pyrazine-6-carboxamide]
6880 | CN(C(=O)c1cn2c(-c3ccc(C(F)(F)F)cc3)cnc2cn1)c1ccc(C(F)(F)F)nc1 [Compound 239, N-methyl-3-[4-(trifluoromethyl)phenyl]-N-[6-(trifluoromethyl)pyridin-3-yl]imidazo[1,2-a]pyrazine-6-carboxamide]
112 | CN(C(=O)c1cn2c(-c3ccc(-c4nnco4)cc3)cnc2cn1)c1ccc(C#N)cc1 [Compound 240, N-(4-cyanophenyl)-N-methyl-3-[4-(1,3,4-oxadiazol-2-yl)phenyl]imidazo[1,2-a]pyrazine-6-carboxamide]
98 | CN(C(=O)c1cn2c(-c3cnc4[nH]ccc4c3)cnc2cn1)c1ccc(C#N)cc1 [Compound 243, N-(4-cyanophenyl)-N-methyl-3-{1H-pyrrolo[2,3-b]pyridin-5-yl}imidazo[1,2-a]pyrazine-6-carboxamide]
290 | CNC(=O)c1ccc(-c2cnc3cnc(C(=O)N(C)c4ccc(F)cc4)cn23)cc1 [Compound 244, N-(4-fluorophenyl)-N-methyl-3-[4-(methylcarbamoyl)phenyl]imidazo[1,2-a]pyrazine-6-carboxamide]
226 | COC(=O)Nc1ccc(-c2cnc3cnc(C(=O)N(C)c4ccc(Cl)nc4)cn23)cc1 [Compound 245, methyl N-(4-{6-[(6-chloropyridin-3-yl)(methyl)carbamoyl]imidazo[1,2-a]pyrazin-3-yl}phenyl)carbamate]
310 | CNc1ccc(-c2cnc3cnc(C(=O)N(C)c4ccc(C#N)cc4)cn23)cn1 [Compound 246, N-(4-cyanophenyl)-N-methyl-3-[6-(methylamino)pyridin-3-yl]imidazo[1,2-a]pyrazine-6-carboxamide]
611 | CN(C(=O)c1cn2c(-c3ccc(NC(=O)CN)cc3)cnc2cn1)c1ccc(C#N)cc1 [Compound 247, 3-[4-(2-aminoacetamido)phenyl]-N-(4-cyanophenyl)-N-methylimidazo[1,2-a]pyrazine-6-carboxamide]
87 | CN(C(=O)c1cn2c(-c3ccc(-c4nnc(N)o4)cc3)cnc2cn1)c1ccc(C#N)cc1 [Compound 248, 3-[4-(5-amino-1,3,4-oxadiazol-2-yl)phenyl]-N-(4-cyanophenyl)-N-methylimidazo[1,2-a]pyrazine-6-carboxamide]
635 | CN(C(=O)c1cn2c(-c3ccc(C(F)(F)F)cc3)cnc2cn1)c1ccncc1 [Compound 249, N-methyl-N-(pyridin-4-yl)-3-[4-(trifluoromethyl)phenyl]imidazo[1,2-a]pyrazine-6-carboxamide]
